Reference: publication PMC11571207, “Stereorandomized Oncocins with Preserved Ribosome Binding and Antibacterial Activity” (Journal of Medicinal Chemistry, 2024)
Values after ≈ are worked out from the molar mass of the structure shown. Non-standard residues stand in square brackets, D forms with d. Residues, ends and D or L forms follow the SMILES beside them. No end group written: not given here.

Assays:
human red blood cells = assay: Hemolysis assay, minimum hemolytic concentration; settings: for Haemolysis on hRBC, MHC: 2.5% human red blood cells (final) in 10 mM phosphate, 150 mM NaCl, pH 7.4, 25 °C, 4 h, visual inspection; for MHC human red blood cells: supplement CSV
K. pneumoniae NCTC 418 = assay: microbe, parasite or virus in culture; settings: for MIC K. pneumoniae, 12.5% MHB / MIC K. pneumoniae, Full MHB: K. pneumoniae NCTC 418, 16–20 h at 37 °C; for MIC K. pneumoniae, 12.5% MHB: 12.5% Müller–Hinton medium; for MIC K. pneumoniae, Full MHB: full Müller–Hinton medium; for MIC K. pneumoniae NCTC418: supplement CSV
Excerpt: (§1) We tested antibacterial effects against the Gram-negative bacteria Escherichia coli, Klebsiella pneumoniae, Pseudomonas aeruginosa, and Acinetobacter baumannii and the Gram-positive methicillin-resistant Staphylococcus aureus (MRSA).
(§2) Bacterial growth assay (Figure S1), transmission electron microscopy (Figure S6), serum stability assay (Figure S7), circular dichroism spectral recording (Figures S8 and S9), antimicrobial and hemolysis activity assays (MIC and MHC), and vesicle leakage assay were carried out as described in earlier publications.[43],[44]
(§3) Minimum inhibitory concentration assay
(§4) Antimicrobial activity was assayed against P. aeruginosa PAO1, K. pneumoniae NCTC418, E. coli W3110, A. baumannii ATCC 19606, methicillin-resistant S. aureus COL (MRSA), and for selected peptides on P. aeruginosa PA14 and the polymyxin-B-resistant derivative PA14 2P4, as well as the clinical isolates ZEM-1A and ZEM9A, K. pneumoniae OXA-48, S. aureus Newman, Enterobacter cloacae and Burkholderia cenocepacia. The minimal inhibitory concentration (MIC) was determined by using broth microdilution method. A colo ny of bacteria was picked and grown in Luria-Bertani (LB) medium overnight at 37°C. For E. coli BW25113 sbmA::kan the medium was supplemented with 25 mg/L of kanamycin. The next day, the culture was then regrown in LB medium to log phase (OD600 = 0.6 to 0.8), which lasted approximately 4 h, and diluted to an OD600 of 0.022 in the desired medium. Stock solutions of 1 mg/mL of the samples were prepared in sterilized milliQ water and diluted to the beginning concentration of 64 μg/mL in 300 μL Mueller Hinton (MH)-medium. The diluted samples were added to first well of 96-well microtiter plate (TPP, untreated, Faust Laborbedarf, AG, Schaffhausen) and diluted serially by ½. Finally, 4 μL of the bacterial suspension was inoculated into the sample solutions (150 μL/well) with a final inoculation of about 5∙10^5 CFU/mL. The plates were then incubated at 37°C for 15-18h. For each assay, sterility (broth only) and growth control (broth with bacterial inoculum, without antibiotics) were checked with two columns in the plate. The next day, 15 μL of 3-(4,5-dimethylthiazol-2-yl)-2,5-diphenyltetrazolium bromide (MTT) was added to each well of the plate, such a way that MIC was defined as the lowest concentration of the peptide that inhibited visible growth of the tested

P. aeruginosa PAO1 = assay: microbe, parasite or virus in culture; settings: for MIC P. aeruginosa, 12.5% MHB / MIC P. aeruginosa, Full MHB: P. aeruginosa PAO1, 16–20 h at 37 °C; for MIC P. aeruginosa, 12.5% MHB: 12.5% Müller–Hinton medium; for MIC P. aeruginosa, Full MHB: full Müller–Hinton medium; for MIC P. aeruginosa PAO1: supplement CSV
Excerpt: as §1, §2, §3, §4

S. aureus COL (MRSA) = assay: microbe, parasite or virus in culture; settings: for MIC S. aureus, 12.5% MHB / MIC S. aureus, Full MHB: S. aureus COL (MRSA), 16–20 h at 37 °C; for MIC S. aureus, 12.5% MHB: 12.5% Müller–Hinton medium; for MIC S. aureus, Full MHB: full Müller–Hinton medium; for MIC S. aureus COL (MRSA): supplement CSV
Excerpt: as §1, §2, §3, §4

A. baumannii ATCC19606 = assay: microbe, parasite or virus in culture; settings: for MIC A. baumannii, 12.5% MHB / MIC A. baumannii, Full MHB: A. baumannii ATCC19606, 16–20 h at 37 °C; for MIC A. baumannii, 12.5% MHB: 12.5% Müller–Hinton medium; for MIC A. baumannii, Full MHB: full Müller–Hinton medium; for MIC A. baumannii ATCC19606: supplement CSV
Excerpt: as §1, §2, §3, §4

E. coli W3110 = assay: microbe, parasite or virus in culture; settings: for MIC E. coli, 12.5% MHB / MIC E. coli, Full MHB: E. coli W3110, 16–20 h at 37 °C, broth microdilution; for MIC E. coli, 12.5% MHB: 12.5% Müller–Hinton medium; for MIC E. coli, Full MHB: full Müller–Hinton medium; for MIC E. coli W3110: supplement CSV
Excerpt: as §1, §2, §3, §4

Row | Compound | Haemolysis on hRBC, MHC (human red blood cells) [µg/mL] | MHC human red blood cells (human red blood cells) [µg/mL] | MIC K. pneumoniae, 12.5% MHB (K. pneumoniae NCTC 418) [µg/mL] | MIC K. pneumoniae, Full MHB (K. pneumoniae NCTC 418) [µg/mL] | MIC K. pneumoniae NCTC418 (K. pneumoniae NCTC 418; 12.5% MH pH 7.4) [µg/mL] | MIC K. pneumoniae NCTC418 (K. pneumoniae NCTC 418; full MH pH 7.4) [µg/mL] | MIC P. aeruginosa, 12.5% MHB (P. aeruginosa PAO1) [µg/mL] | MIC P. aeruginosa, Full MHB (P. aeruginosa PAO1) [µg/mL] | MIC P. aeruginosa PAO1 (P. aeruginosa PAO1; 12.5% MH pH 7.4) [µg/mL] | MIC P. aeruginosa PAO1 (P. aeruginosa PAO1; full MH pH 7.4) [µg/mL] | MIC S. aureus, 12.5% MHB (S. aureus COL (MRSA)) | MIC S. aureus, Full MHB (S. aureus COL (MRSA)) | MIC S. aureus COL (MRSA) (S. aureus COL (MRSA); 12.5% MH pH 7.4) [µg/mL] | MIC S. aureus COL (MRSA) (S. aureus COL (MRSA); full MH pH 7.4) [µg/mL] | MIC A. baumannii, 12.5% MHB (A. baumannii ATCC19606) [µg/mL] | MIC A. baumannii, Full MHB (A. baumannii ATCC19606) [µg/mL] | MIC A. baumannii ATCC19606 (A. baumannii ATCC19606; 12.5% MH pH 7.4) [µg/mL] | MIC A. baumannii ATCC19606 (A. baumannii ATCC19606; full MH pH 7.4) [µg/mL] | MIC E. coli, 12.5% MHB (E. coli W3110) [µg/mL] | MIC E. coli, Full MHB (E. coli W3110) [µg/mL] | other results
1 | VDKPPYLPRPRPPRRIYNR [sr10Cterm-Onc] (VDKPPYLPRPRPPRRIYNR-NH2; also: residues 10-19 stereorandomized (1:1 L/D mixture)) | >1000 | >1000 | 4 | 8 | 4 | 8 | 8 | 64 | 8 | 64 | 32 µg/mL | > 64 µg/mL | 32 | >64 | 4 | 64 | 4 | 64 | 4 | 16 | MIC E. coli W3110 (E. coli W3110; 12.5% MH pH 7.4): 4 µg/mL; MIC E. coli W3110 (E. coli W3110; full MH pH 7.4): 16 µg/mL
2 | CC[C@H](C)[C@H](NC(=O)[C@H](CCCNC(=N)N)NC(=O)[C@H](CCCNC(=N)N)NC(=O)[C@@H]1CCCN1C(=O)[C@@H]1CCCN1C(=O)[C@H](CCCNC(=N)N)NC(=O)[C@H]1CCCN1C(=O)[C@H](CCCNC(=N)N)NC(=O)[C@@H]1CCCN1C(=O)[C@H](CC(C)C)NC(=O)[C@H](Cc1ccc(O)cc1)NC(=O)[C@@H]1CCCN1C(=O)[C@@H]1CCCN1C(=O)[C@H](CCCCN)NC(=O)[C@H](CC(=O)O)NC(=O)[C@@H](N)C(C)C)C(=O)N[C@@H](Cc1ccc(O)cc1)C(=O)N[C@@H](CC(N)=O)C(=O)N[C@@H](CCCNC(=N)N)C(N)=O [DP10-Onc] (H-VDKPPYLPR[dP]RPPRRIYNR-NH2) | >1000 | >1000 | 4 (≈ 1.67 µM) | 32 (≈ 13.4 µM) | 4 (≈ 1.67 µM) | 32 (≈ 13.4 µM) | 16 (≈ 6.69 µM) | > 64 | 16 (≈ 6.69 µM) | >64 | >64 / >64 μg/mL | >64 / >64 μg/mL | >64 | >64 | 8 (≈ 3.35 µM) | 64 (≈ 26.8 µM) | 8 (≈ 3.35 µM) | 64 (≈ 26.8 µM) | 4 (≈ 1.67 µM) | 16 (≈ 6.69 µM) | MIC E. coli W3110 (E. coli W3110; 12.5% MH pH 7.4): 4 µg/mL (≈ 1.67 µM); MIC E. coli W3110 (E. coli W3110; full MH pH 7.4): 16 µg/mL (≈ 6.69 µM)
3 | VDKPPYLPRPRPPRRIYNR [sr7Cterm-Onc] (VDKPPYLPRPRPPRRIYNR-NH2; also: residues 13-19 stereorandomized (1:1 L/D mixture)) | >1000 | >1000 | 1 | 4 | 1 | 4 | 4 | 64 | 4 | 64 | > 16 µg/mL | > 64 µg/mL | >16 | >64 | 4 | 32 | 4 | 32 | 1 | 8 | MIC E. coli W3110 (E. coli W3110; 12.5% MH pH 7.4): 1 µg/mL; MIC E. coli W3110 (E. coli W3110; full MH pH 7.4): 8 µg/mL
4 | CC[C@H](C)[C@H](NC(=O)[C@H](CCCNC(=N)N)NC(=O)[C@H](CCCNC(=N)N)NC(=O)[C@@H]1CCCN1C(=O)[C@@H]1CCCN1C(=O)[C@H](CCCNC(=N)N)NC(=O)[C@@H]1CCCN1C(=O)[C@H](CCCNC(=N)N)NC(=O)[C@H]1CCCN1C(=O)[C@H](CC(C)C)NC(=O)[C@H](Cc1ccc(O)cc1)NC(=O)[C@@H]1CCCN1C(=O)[C@@H]1CCCN1C(=O)[C@H](CCCCN)NC(=O)[C@H](CC(=O)O)NC(=O)[C@@H](N)C(C)C)C(=O)N[C@@H](Cc1ccc(O)cc1)C(=O)N[C@@H](CC(N)=O)C(=O)N[C@@H](CCCNC(=N)N)C(N)=O [DP8-Onc] (H-VDKPPYL[dP]RPRPPRRIYNR-NH2) | >1000 | >1000 | 16 (≈ 6.69 µM) | > 64 | 16 (≈ 6.69 µM) | >64 | 16 (≈ 6.69 µM) | > 64 | 16 (≈ 6.69 µM) | >64 | >64 / 64 μg/mL | >64 / 64 μg/mL | 64 (≈ 26.8 µM) | >64 | 16 (≈ 6.69 µM) | > 64 | 16 (≈ 6.69 µM) | >64 | 4 (≈ 1.67 µM) | 32 (≈ 13.4 µM) | MIC E. coli W3110 (E. coli W3110; 12.5% MH pH 7.4): 4 µg/mL (≈ 1.67 µM); MIC E. coli W3110 (E. coli W3110; full MH pH 7.4): 32 µg/mL (≈ 13.4 µM)
5 | CC[C@H](C)[C@H](NC(=O)[C@H](CCCNC(=N)N)NC(=O)[C@H](CCCNC(=N)N)NC(=O)[C@@H]1CCCN1C(=O)[C@H]1CCCN1C(=O)[C@H](CCCNC(=N)N)NC(=O)[C@@H]1CCCN1C(=O)[C@H](CCCNC(=N)N)NC(=O)[C@@H]1CCCN1C(=O)[C@H](CC(C)C)NC(=O)[C@H](Cc1ccc(O)cc1)NC(=O)[C@@H]1CCCN1C(=O)[C@@H]1CCCN1C(=O)[C@H](CCCCN)NC(=O)[C@H](CC(=O)O)NC(=O)[C@@H](N)C(C)C)C(=O)N[C@@H](Cc1ccc(O)cc1)C(=O)N[C@@H](CC(N)=O)C(=O)N[C@@H](CCCNC(=N)N)C(N)=O [DP12-Onc] (H-VDKPPYLPRPR[dP]PRRIYNR-NH2) | >1000 | >1000 | 4 (≈ 1.67 µM) | 16 (≈ 6.69 µM) | 4 (≈ 1.67 µM) | 16 (≈ 6.69 µM) | 16 (≈ 6.69 µM) | > 64 | 16 (≈ 6.69 µM) | >64 | >64 / 64 μg/mL | >64 / 64 μg/mL | 64 (≈ 26.8 µM) | >64 | 8 (≈ 3.35 µM) | 16 (≈ 6.69 µM) | 8 (≈ 3.35 µM) | 16 (≈ 6.69 µM) | 2 (≈ 0.837 µM) | 8 (≈ 3.35 µM) | MIC E. coli W3110 (E. coli W3110; 12.5% MH pH 7.4): 2 µg/mL (≈ 0.837 µM); MIC E. coli W3110 (E. coli W3110; full MH pH 7.4): 8 µg/mL (≈ 3.35 µM)
